Data as given in patent US20230016424A1, “HYBRID AMIDE DERIVATIVES OF AMPHOTERICIN B” (The Board of Trustees of the University of Illinois, priority 2019, published 2023).
Converted amounts (≈) assume the structure as drawn. Where two headings read alike, the source gives them in different places.

Assays:
C. albicans SN250 = assay: MIC; assay type: cell-based, Candida albicans
C. albicans = assay: MIC; assay type: cell-based
C. krusei = assay: MIC; assay type: cell-based
C. glabrata = assay: MIC; assay type: cell-based
C. tropicalis = assay: MIC; assay type: cell-based
A. fumigatus 91 = assay: MIC; assay type: cell-based
A. fumigatus 1163 = assay: MIC; assay type: cell-based
A. fumigatus 1100 = assay: MIC; assay type: cell-based
[1] = system: C. albicans SN250, C. albicans, C. krusei, C. glabrata, C. tropicalis, A. fumigatus 91, 1163, 1100; assay: Average MIC over the tested strains; assay type: cell-based; conditions: for MIC: average over the 8 listed strains; for Average MIC for AmB analogue: value of the corresponding AmB analogue, not of the C2’epi compound
Plasma Stability = assay type: in vitro ADME
Experimental: Plasma Stability: Procedure: […] Plasma was warmed to 37° C. prior to the experiment and centrifuged for 5 mins at 4000 rpm. […] Each time point was monitored in triplicate (0, 10, 30, 60 and 120 min). 4 uL/well aliquot of the working solution was mixed to the blank plasma and incubated at 37° C. AT each time point samples were quenched with ACN stop solution containing 200 ng/ml Tolbutamide & 200 ng/ml Labetalol at 1:3 ratio and mix well on shaker for 10 min then centrifuge at 4000 rpm for 15 min. A 100 ul aliquot of supernatant was mixed with 100 μL of ultra-pure and submitted for LC-MS/MS analysis.

[2] = Liver Microsome stability (In Vitro Metabolism); assay type: in vitro ADME; conditions: for Remaining (T = NCF60 min): no cofactor 60 min
Experimental: Working Compound solution: 10 uM in 50 mM potassium phosphate buffer with 9% MeOH and 1% DMSO
Microsome solution: working concentration 0.625 mg/ml
Stopping solution: Cold ACN with 200 ng/ml Tolbutamide and 200 ng/ml Labetalol (4° C.)
Procedure: In the well plates (T5, T10, T20, T30, T60, NCF60 (no cofactor 60)) 10 uL of the compound/control working solution was added (except T0 and matric blank) followed by microsome solution (80 uL) and the mixture was incubated at 37 C for about 10 mins. A solution of potassium phosphate (10 ul of 50 mM) was added to NCF60 well, incubated at 37 C and time counting started. After prewarming 10 ul of NADPH regenerating solution was added to each plate to start the reaction. At different time point 300 uL/well of stopping solution to terminate the reaction. The sampling plates were shaken for 10 mins and the centrifuged for 20 mins at 4000 rpm. The supernatant was half diluted with ultra pure water and the analyzed using LCMS.

## CC1C=CC=CC=CC=CC=CC=CC=CC(OC2OC(C)C(O)C(N)C2O)CC2OC(O)(CC(O)CC(O)C(O)CCC(O)CC(O)CC(=O)OC(C)C(C)C1O)CC(O)C2C(=O)NCC(C)(C)O (stereo not drawn) [AI]
C. albicans SN250
  MIC C. albicans SN250: 0.3 µM (≈ 0.299 µg/mL)
C. albicans
  MIC C. albicans: 0.4 µM (≈ 0.398 µg/mL)
C. krusei
  MIC C. krusei: 1 µM (≈ 0.995 µg/mL)
C. glabrata
  MIC C. glabrata: 0.25 µM (≈ 0.249 µg/mL)
C. tropicalis
  MIC C. tropicalis: 0.45 µM (≈ 0.448 µg/mL)
A. fumigatus 91
  MIC A. fumigatus 91: 1 µM (≈ 0.995 µg/mL)
A. fumigatus 1163
  MIC A. fumigatus 1163: 1 µM (≈ 0.995 µg/mL)
A. fumigatus 1100
  MIC A. fumigatus 1100: 1 µM (≈ 0.995 µg/mL)
[1]
  MIC: 0.675 µM

## CC1C=CC=CC=CC=CC=CC=CC=CC(OC2OC(C)C(O)C(N)C2O)CC2OC(O)(CC(O)CC(O)C(O)CCC(O)CC(O)CC(=O)OC(C)C(C)C1O)CC(O)C2C(=O)NCC(O)CO (stereo not drawn) [AK]
C. albicans SN250
  MIC C. albicans SN250: 0.15 µM (≈ 0.15 µg/mL)
C. albicans
  MIC C. albicans: 0.25 µM (≈ 0.249 µg/mL)
C. krusei
  MIC C. krusei: 0.4 µM (≈ 0.399 µg/mL)
C. glabrata
  MIC C. glabrata: 0.1 µM (≈ 0.0997 µg/mL)
C. tropicalis
  MIC C. tropicalis: 0.3 µM (≈ 0.299 µg/mL)
A. fumigatus 91
  MIC A. fumigatus 91: 1 µM (≈ 0.997 µg/mL)
A. fumigatus 1163
  MIC A. fumigatus 1163: 0.5 µM (≈ 0.499 µg/mL)
A. fumigatus 1100
  MIC A. fumigatus 1100: 0.75 µM (≈ 0.748 µg/mL)
[1]
  MIC: 0.431 µM

## CC1C=CC=CC=CC=CC=CC=CC=CC(OC2OC(C)C(O)C(N)C2O)CC2OC(O)(CC(O)CC(O)C(O)CCC(O)CC(O)CC(=O)OC(C)C(C)C1O)CC(O)C2C(=O)NC1CC1 (stereo not drawn) [BD]
C. albicans SN250
  MIC C. albicans SN250: 0.5 µM (≈ 0.482 µg/mL)
C. albicans
  MIC C. albicans: 1 µM (≈ 0.963 µg/mL)
C. krusei
  MIC C. krusei: 4 µM (≈ 3.85 µg/mL)
C. glabrata
  MIC C. glabrata: 0.5 µM (≈ 0.482 µg/mL)
C. tropicalis
  MIC C. tropicalis: 0.5 µM (≈ 0.482 µg/mL)
A. fumigatus 91
  MIC A. fumigatus 91: 8 µM (≈ 7.71 µg/mL)
A. fumigatus 1163
  MIC A. fumigatus 1163: 6 µM (≈ 5.78 µg/mL)
A. fumigatus 1100
  MIC A. fumigatus 1100: 4 µM (≈ 3.85 µg/mL)
[1]
  MIC: 3.063 µM
  Average MIC for AmB analogue: 0.500 μM

## CC1C=CC=CC=CC=CC=CC=CC=CC(OC2OC(C)C(O)C(N)C2O)CC2OC(O)(CC(O)CC(O)C(O)CCC(O)CC(O)CC(=O)OC(C)C(C)C1O)CC(O)C2C(=O)NC1CCC1 (stereo not drawn) [BE]
C. albicans SN250
  MIC C. albicans SN250: 1 µM (≈ 0.977 µg/mL)
C. albicans
  MIC C. albicans: 2 µM (≈ 1.95 µg/mL)
C. krusei
  MIC C. krusei: 4 µM (≈ 3.91 µg/mL)
C. glabrata
  MIC C. glabrata: 0.5 µM (≈ 0.489 µg/mL)
C. tropicalis
  MIC C. tropicalis: 1 µM (≈ 0.977 µg/mL)
A. fumigatus 91
  MIC A. fumigatus 91: 8 µM (≈ 7.82 µg/mL)
A. fumigatus 1163
  MIC A. fumigatus 1163: 8 µM (≈ 7.82 µg/mL)
A. fumigatus 1100
  MIC A. fumigatus 1100: 4 µM (≈ 3.91 µg/mL)
[1]
  MIC: 3.563 µM
  Average MIC for AmB analogue: 1.281 μM

## CC1C=CC=CC=CC=CC=CC=CC=CC(OC2OC(C)C(O)C(N)C2O)CC2OC(O)(CC(O)CC(O)C(O)CCC(O)CC(O)CC(=O)OC(C)C(C)C1O)CC(O)C2C(=O)NCCO (stereo not drawn) [Compound AA]
C. albicans SN250
  MIC C. albicans SN250: 0.25 µM (≈ 0.242 µg/mL)
C. albicans
  MIC C. albicans: 0.225 µM (≈ 0.218 µg/mL)
C. albicans; listed as AmBHEA
  MIC C. albicans: 0.225 µM (≈ 0.218 µg/mL)
C. krusei
  MIC C. krusei: 0.45 µM (≈ 0.435 µg/mL)
C. krusei; listed as AmBHEA
  MIC C. krusei: 0.45 µM (≈ 0.435 µg/mL)
C. glabrata
  MIC C. glabrata: 0.145 µM (≈ 0.14 µg/mL)
C. glabrata; listed as AmBHEA
  MIC C. glabrata: 0.145 µM (≈ 0.14 µg/mL)
C. tropicalis
  MIC C. tropicalis: 0.225 µM (≈ 0.218 µg/mL)
C. tropicalis; listed as AmBHEA
  MIC C. tropicalis: 0.225 µM (≈ 0.218 µg/mL)
A. fumigatus 91
  MIC A. fumigatus 91: 1 µM (≈ 0.967 µg/mL)
A. fumigatus 91; listed as AmBHEA
  MIC A. fumigatus 91: 1 µM (≈ 0.967 µg/mL)
A. fumigatus 1163
  MIC A. fumigatus 1163: 0.525 µM (≈ 0.508 µg/mL)
A. fumigatus 1163; listed as AmBHEA
  MIC A. fumigatus 1163: 0.525 µM (≈ 0.508 µg/mL)
A. fumigatus 1100
  MIC A. fumigatus 1100: 0.7 µM (≈ 0.677 µg/mL)
A. fumigatus 1100; listed as AmBHEA
  MIC A. fumigatus 1100: 0.7 µM (≈ 0.677 µg/mL)
[1]
  MIC: 0.44 µM
[1]; listed as AmBHEA
  MIC: 0.44 µM
Plasma Stability; Human Plasma
  % Remaining at 120 min: 119%
  Half Life: >4.82 h
Plasma Stability; Rat Plasma
  % Remaining at 120 min: 108%
  Half Life: >4.82 h
[2]; Dog liver microsomes
  CL: <9.6 µL/min/mg
  CLint: <14 mL/min/kg
  Remaining (T = 60 min): 88.5%
  T1/2: >2.42 h
  Remaining (T = NCF60 min): 97.4%
[2]; Human liver microsomes
  CL: <9.6 µL/min/mg
  CLint: <8.6 mL/min/kg
  Remaining (T = 60 min): 111%
  T1/2: >2.42 h
  Remaining (T = NCF60 min): 142%
[2]; Monkey liver microsomes
  CL: <9.6 µL/min/mg
  CLint: <13 mL/min/kg
  Remaining (T = 60 min): 113%
  T1/2: >2.42 h
  Remaining (T = NCF60 min): 103%
[2]; Mouse liver microsomes
  CL: <9.6 µL/min/mg
  CLint: <38 mL/min/kg
  Remaining (T = 60 min): 118%
  T1/2: >2.42 h
  Remaining (T = NCF60 min): 140%
[2]; Rat liver microsomes
  CL: <9.6 µL/min/mg
  CLint: <17 mL/min/kg
  Remaining (T = 60 min): 130%
  T1/2: >2.42 h
  Remaining (T = NCF60 min): 113%
